The compounds below were run against T1, human D4 receptors (Homo sapiens, UniProt P21917) (assay: Functional antagonist assay: reversal of dopamine inhibition of forskolin-stimulated adenyl cyclase (cAMP)). Conditions: 1 μM; dopamine and forskolin both 10 μM; read-out: % REVERSAL OF DOPAMINE EFFECT.
T1 construct: expressed in transfected cells
T1 sequence (P21917 1-419): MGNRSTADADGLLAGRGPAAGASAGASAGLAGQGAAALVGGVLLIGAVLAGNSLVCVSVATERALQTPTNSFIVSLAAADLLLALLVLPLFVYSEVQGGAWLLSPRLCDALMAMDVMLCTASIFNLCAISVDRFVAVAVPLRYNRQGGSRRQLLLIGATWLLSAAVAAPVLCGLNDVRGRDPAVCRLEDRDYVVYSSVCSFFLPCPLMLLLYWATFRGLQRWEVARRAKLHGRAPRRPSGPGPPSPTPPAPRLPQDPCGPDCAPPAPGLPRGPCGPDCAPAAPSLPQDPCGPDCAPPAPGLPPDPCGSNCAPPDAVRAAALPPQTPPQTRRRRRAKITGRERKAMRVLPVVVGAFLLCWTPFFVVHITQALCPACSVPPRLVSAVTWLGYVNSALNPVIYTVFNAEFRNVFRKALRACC
Format: cell-based
Method: The D4 receptor responds to dopamine and other agonists by reducing adenyl cyclase mediated production of cyclic AMP. Particular test compounds were assayed for their ability to reverse dopamine inhibition of adenyl cyclase by the following procedure. Forskolin was used to elevate the basal adenyl cyclase activity.
CHO Pro 5 cells stably expressing human D4 receptors were plated in 6 well plates in DMEM (Dulbecco's Modified Eagle Medium)/F12(Nutrient Mixture F12 (Ham)) media with 10% FCS (fetal calf serum) and G418 (Geneticen Disulfate), and incubated at 37° C. in a CO2 incubator. The cells were allowed to grow to about 70% confluence before use in the assay.
The culture media of each well was removed by aspiration, and the wells were washed once with serum free media (SFM) (DMEM/F12) media. Then 2 mL of fresh SFM+IBMX media (SFM with 0.5 mM IBMX (3-isobutyl-1-methylxanthine0.1% ascorbic acid and 10 μM pargyline) was added to each well and then incubated at 37° C. for 10 minutes in CO2 incubator. Following incubation, SFM+IBMX media was aspirated and fresh SFM+IBMX media was added to wells separately with one of a) forskolin (10 μM final conc.); b) dopamine and forskolin (both 10 μM final conc.); and c) test compound ([…]), and dopamine and forskolin (both 10 μM final conc.). Basal adenyl cyclase activity was determined from wells with only SFM+IBMX media added.
The cells were then incubated at 37° C. for 30 minutes in a CO2 incubator. Following incubation the media was aspirated from each well and then washed once with 2 mL of PBS (phosphate buffered saline). Each well was then treated with 1 mL cold 95% ethanol:5 mM EDTA (2:1) at 4° C. for 1 h. The cells from each well were then scraped and transferred into individual Eppendorf tubes. The tubes were centrifuged for 5 minutes at 4° C., and the supernatants were transferred to new Eppendorf tubes. The pellets were discarded and the supernatants dried using a SpeedVac. The extracts were then reconstituted in 600 μL of 0.1M sodium acetate buffer, pH 6.1, and stored at 4° C. until assayed for cAMP concentration. cAMP content measured in fmoles/well for each extract was determined by EIA (enzyme-immunoassay) using Amersham Biotrak cAMP EIA kit (Amersham RPN 225).
Total inhibition (IO) of forskolin-stimulated adenyl cyclase activity by dopamine was determined as the difference in concentration of cAMP in the forskolin-treated cells (Cf) and dopamine-forskolin treated cells (Cd).
Net inhibition (I) of forskolin-stimulated adenyl cyclase activity by dopamine in the presence of an antagonist was determined as the difference in concentration of cAMP in the forskolin-treated cells (Cf) and test compound, dopamine and forskolin treated cells (C).
The ability of a test compound to reverse the dopamine inhibition (% reversal, %R) was determined by the formula: […]

inhibition at 1 µM	SMILES
40%	c1ccc2c(c1)N=C(N1CCN(Cc3ccc4c(c3)OCO4)CC1)c1ccccc1O2 [11-(4-piperonyl)-1-piperazinyl)-dibenz[b,f][1,4]oxazepine]
47%	Clc1ccc2c(c1)C=C(N1CCN(Cc3ccc4c(c3)OCO4)CC1)c1ccccc1S2 [2-chloro-10-(4-piperonyl-1-piperazinyl)dibenzo[b,f]thiepine]
46%	Clc1ccc2c(c1)N=C(N1CCN(Cc3ccc4c(c3)OCO4)CC1)c1ccccc1O2 [8-chloro-11-(4-piperonyl)-1-piperazinyl)dibenz[b,f][1,4]oxazepine]
19%	Clc1ccc2c(c1)Nc1ccccc1N=C2N1CCN(Cc2ccc3c(c2)OCO3)CC1 [3-chloro-11-(4-piperonyl-1-piperazinyl)-5H-dibenzo[b,e][1,4]diazepine]

Same assay, conditions: 10 μM; dopamine and forskolin both 10 μM; read-out: % REVERSAL OF DOPAMINE EFFECT

inhibition at 10 µM	SMILES
50%	c1ccc2c(c1)N=C(N1CCN(Cc3ccc4c(c3)OCO4)CC1)c1ccccc1O2 [11-(4-piperonyl)-1-piperazinyl)-dibenz[b,f][1,4]oxazepine]
40%	Clc1ccc2c(c1)C=C(N1CCN(Cc3ccc4c(c3)OCO4)CC1)c1ccccc1S2 [2-chloro-10-(4-piperonyl-1-piperazinyl)dibenzo[b,f]thiepine]
68%	Clc1ccc2c(c1)N=C(N1CCN(Cc3ccc4c(c3)OCO4)CC1)c1ccccc1O2 [8-chloro-11-(4-piperonyl)-1-piperazinyl)dibenz[b,f][1,4]oxazepine]
50%	Clc1ccc2c(c1)Nc1ccccc1N=C2N1CCN(Cc2ccc3c(c2)OCO3)CC1 [3-chloro-11-(4-piperonyl-1-piperazinyl)-5H-dibenzo[b,e][1,4]diazepine]

Reference: patent US5798350A, “Dopamine receptor ligands” (Allelix Biopharmaceuticals, Inc., priority 1996, dated 1998)
